Laboratory results: patent US8426169B2, “Glycosylate derivatives of mithramycin, method of preparation and uses thereof” (University of Kentucky Research Foundation, priority 2007, dated 2013)
Read-outs that look alike come from different tables or passages of the source.

Columns and labels:
Assay type in all cases: cell-based
[1] = system: MDA-MB-231 (breast); experiment: SRB colorimetric cell growth and viability assay, MDA-MB-231; settings: 48 hours of exposure, read-out: GI50, concentration at which the compound assayed inhibits 50% of the cell growth compared to non-treated cells
[2] = system: A549 (lung); experiment: SRB colorimetric cell growth and viability assay, A549; settings: 48 hours of exposure, read-out: GI50, concentration at which the compound assayed inhibits 50% of the cell growth compared to non-treated cells
[3] = system: HT29 (colon); experiment: SRB colorimetric cell growth and viability assay, HT29; settings: read-out: GI50, concentration at which the compound assayed inhibits 50% of the cell growth compared to non-treated cells
[4] = Homo sapiens, HT-29, 48 hours of exposure

Row | Compound | GI50 [1] | GI50 [2] | GI50 ([3]; 48 hours of exposure) | GI50 ([1]; Homo sapiens) | GI50 ([2]; Homo sapiens) | GI50 [3, 4]
1 | 6-dediolivosyl-6-β-D-amicetosyl-deoliosyl-3C-β-D-olivosyl-MTM [formula XXI] | 470 nM | 440 nM | 940 nM |  |  | 
2 | 6-dediolivosyl-6-β-D-amicetosyl-deoliosyl-demycarosyl-3C-β-D-boivinosyl-MTM [formula XVIII] | 400 nM | 750 nM | 2010 nM |  |  | 
3 | 6-dediolivosyl-6-β-D-amicetosyl-deoliosyl-demycarosyl-3C-β-D-olivosyl-3D-β-D-digitoxosyl-MTM [formula XX] | > 10000 nM | > 10000 nM | > 10000 nM |  |  | 
4 | CO[C@H](C(=O)[C@@H](O)[C@@H](C)O)[C@@H]1Cc2cc3cc(O[C@H]4C[C@@H](O[C@H]5C[C@@H](O)[C@H](O)C(C)O5)[C@H](O)C(C)O4)c(C)c(O)c3c(O)c2C(=O)[C@H]1O[C@H]1C[C@@H](O[C@H]2C[C@H](O[C@H]3C[C@](C)(O)[C@H](O)C(C)O3)[C@@H](O)C(C)O2)[C@H](O)C(C)O1 (stereo partly drawn) [formula IX, deoliosyl-3C-α-L-digitoxosyl-MTM] |  |  |  | 1940 nM | 2670 nM | 3870 nM
5 | CO[C@H](C(=O)[C@@H](O)[C@@H](C)O)[C@@H]1Cc2cc3cc(O[C@H]4C[C@@H](O[C@H]5C[C@@H](O)[C@H](O)C(C)O5)[C@H](O)C(C)O4)c(C)c(O)c3c(O)c2C(=O)[C@H]1O[C@H]1C[C@@H](O[C@H]2C[C@@H](O[C@H]3C[C@@H](O)[C@H](O)C(C)O3)[C@@H](O)C(C)O2)[C@H](O)C(C)O1 (stereo partly drawn) [formula VIII] |  |  |  | 230 nM | 190 nM | 270 nM
6 | CO[C@H](C(=O)[C@@H](O)[C@@H](C)O)[C@@H]1Cc2cc3cc(O[C@H]4C[C@@H](O[C@H]5C[C@@H](O)[C@H](O)C(C)O5)[C@H](O)C(C)O4)c(C)c(O)c3c(O)c2C(=O)[C@H]1O[C@H]1C[C@@H](O[C@H]2C[C@](C)(O)[C@H](O)C(C)O2)[C@H](O)C(C)O1 (stereo partly drawn) [formula X, deoliosyl-3C-β-D-mycarosyl-MTM] |  |  |  | 370 nM | 480 nM | 930 nM
7 | CO[C@H](C(=O)[C@@H](O)[C@@H](C)O)[C@@H]1Cc2cc3cc(O[C@H]4C[C@@H](O)[C@H](O)C(C)O4)c(C)c(O)c3c(O)c2C(=O)[C@H]1O[C@H]1C[C@@H](O[C@H]2C[C@@H](O[C@H]3C[C@](C)(O)[C@H](O)C(C)O3)[C@@H](O)C(C)O2)[C@H](O)C(C)O1 (stereo partly drawn) [formula XI, 3A-deolivosyl-MTM] |  |  |  | 450 nM | 750 nM | 710 nM
8 | CO[C@H](C(=O)[C@@H](O)[C@@H](C)O)[C@@H]1Cc2cc3cc(O[C@H]4C[C@@H](O[C@H]5C[C@@H](O)[C@H](O)C(C)O5)[C@H](O)C(C)O4)c(C)c(O)c3c(O)c2C(=O)[C@H]1O[C@H]1C[C@@H](O[C@H]2C[C@@H](O)[C@@H](O)C(C)O2)[C@H](O)C(C)O1 (stereo partly drawn) [formula XII, demycarosyl-MTM] |  |  |  | 1280 nM | 1810 nM | > 10000 nM
9 | CO[C@H](C(=O)[C@@H](O)[C@@H](C)O)[C@@H]1Cc2cc3cc(O[C@H]4CC[C@H](O)C(C)O4)c(C)c(O)c3c(O)c2C(=O)[C@H]1O[C@H]1C[C@@H](O[C@H]2C[C@@H](O[C@H]3C[C@](C)(O)[C@H](O)C(C)O3)[C@@H](O)C(C)O2)[C@H](O)C(C)O1 (stereo partly drawn) [formula XIII] |  |  |  | 1380 nM | 1490 nM | 3190 nM
10 | deoliosyl-demycarosyl-3C-β-D-boivinosyl-MTM [formula XVII] | 3720 nM | > 10000 nM | > 10000 nM |  |  | 
11 | deoliosyl-demycarosyl-3C-β-D-olivosyl-3D-β-D-digitoxosyl-MTM [formula XIX] | 690 nM | 910 nM | 5980 nM |  |  | 
